Assays:
folate receptor = target: T1, folate receptor (Homo sapiens, UniProt P15328); experiment: Relative affinity assay ([3H]FA displacement on KB cells); format: binding
T1 construct: FR-positive KB cells were seeded in 24-well Falcon plates and allowed to form adherent monolayers; endogenous in cells; host or cells: KB cells
Method: FR-positive KB cells were seeded in 24-well Falcon plates and allowed to form adherent monolayers (>90% confluent) overnight in FFRPMI/HIFCS. Spent incubation medium was replaced with FFRPMI supplemented with 10% HIFCS and containing 100 nmol/L of [^3H]FA in the absence and presence of increasing concentrations of unlabeled FA or the test conjugate. Cells were incubated for 1 hour at 37° C. and then rinsed thrice with 0.5 mL PBS. Five hundred microliters of 1% SDS in PBS were added to each well; after 5 min, cell lysates were collected, transferred to individual vials containing 5 mL of scintillation cocktail, and then counted for radioactivity.
Cells exposed to only the [^3H]FA in FFRPMI (no competitor) were designated as negative controls, whereas cells exposed to the [^3H]FA plus 1 mmol/L unlabeled FA served as positive controls. Disintegrations per minute (DPM) measured in the latter samples (representing nonspecific binding of label) were subtracted from the DPM values from all samples.

[1] = tested on: 4T1p tumor (FRα-negative); experiment: Single-agent activity in vivo, 4T1p mammary tumors; set-up: species or system mice; settings: 0.2 μmol/kg i.v., BIW×3 doses
Text: Female Balb/c mice (4T1p, 4T1-C12) were purchased from Envigo (Indianapolis, Ind.) and used when they reached 6-8 weeks of age. The mice were fed a folate-deficient diet (TestDiet, St. Louis, Mo.) on the day of arrival.
Solid tumors in Balb/c mice were generated by subcutaneous implantation of cultured cells at 5×10^5 (4T1p) and 2×10^6 (4T1-C12) per animal in the mammary region.
Starting on day 0, mice with mammary 4T1p (˜78.3±12.1 mm^3) and 4T1-C12 (˜70.1±14.1 mm^3) were scheduled to receive Conjugate 5 at 200 nmol/kg, biweekly for two weeks. 4T1p tumor bearing mice received a total of 3 doses only and 4T1-C12 tumor bearing mice received a total of 4 doses as planned. Mice were weighed and measured for tumor size 3 times a week. The tumor volumes were calculated by the following formula: V=0.5×a×b^2, where a is the longest axis across the tumor, and b is the shorter axis perpendicular to a. The animals were euthanized when the tumor volume reached ˜1500 mm^3. Mice were also monitored closely for the evidence of toxicity such as respiratory distress, mobility, weight loss, diarrhea, hunched posture, and failure to eat. The last Conjugate 5 dose in the 4T1p tumor-bearing mice was skipped due to weight loss.

TNBC PDX tumor = experiment: In vivo activity against triple negative breast tumors (FIG. 10); set-up: species or system mice; settings: Conjugate 5 0.27 μmol/kg BIW two weeks; erubulin mesylate 1.0 μmol/kg SIW two weeks
Method: (§1) Mice were maintained and tumor volumes were measures according to Method 3.
(§2) Primary human TNBC model ST502 (2-4 mm in diameter) or primary human TNBC model ST738 (2-4 mm in diameter) were inoculated subcutaneously at the right flank of each mouse. Mice were randomized into experimental groups of 7 mice each and test articles were injected through the lateral tail vein under sterile conditions in a volume of […] of phosphate-buffered saline (PBS).

ID8-C115 ascites tumors = experiment: Conjugate 5 versus EC1456 against various stages of ID8-C115 ascites tumors, survival; format: in vivo, mice
Text: Mouse ascites tumors were generated by intra-peritoneal implantation of cultured cells at 5×10^6 in C57BL/6 mice.
In a first experiment (P-1836), all treatment started 7 days after the tumors were implanted. The mice were intravenously dosed with Conjugate 5 at 0.1 μmol/kg twice-per-week for a total of 6 doses (BIW×3). […] In a second experiment (P-1846), Conjugate 5 treatment started 21 days after the tumors were implanted. The mice were intravenously dosed with Conjugate 5 at 0.1 μmol/kg for 3 consecutive days each week for 3 weeks (D0-2×3, 9 doses). […] In a third experiment (P-1861), Conjugate 5 treatment started 35 days after the tumors were implanted. The mice were intravenously dosed with Conjugate 5 at 0.3 μmol/kg once-a-week for 2 consecutive weeks (SIW×2, 2 doses). […] In a fourth experiment (P-1836), Conjugate 5 treatment started 43 days after the tumors were implanted. The mice were intravenously dosed with Conjugate 5 at 0.3 μmol/kg once-a-week for 2 consecutive weeks (SIW×2, 2 doses). […] All mice were weighed 3 times/week and assessed for any clinical sign of swollen bellies indicative of ascites formation and for evidence of toxicity including respiratory distress, mobility, weight loss, diarrhea, hunched posture, and failure to eat. Once the animals developed ascites, they were monitored daily and euthanized when ascites became severe (rounded and walking on tip toes).

4T1-C12 tumor cells = experiment: XTT cell viability assay, 4T1-C12; format: cell-based, mouse; settings: FRα-positive 4T1-C12, 2 hours exposure, 96 hour chase
Method: The FRα− and FRα+ expressing cell lines utilized to evaluate Conjugate 5 activity in-vitro and/or ex-vivo studies were (1) 4T1p, a mouse breast cancer cell line that resembles triple negative breast cancer in humans, (2) 4T1-C12, 4T1p stably transfected with a mouse FRa, and (3) IGROV1, a human ovarian carcinoma cell line that expresses the human FRα. 4T1p and 4T1-C12 cells were grown respectively in a folate-replete or folate-free RPMI1640 medium (Gibco BRL) (FFRPMI) containing 10% heat-inactivated fetal calf serum (HIFCS) and antibiotics, and maintained under a 5% CO2 atmosphere using standard cell culture techniques. IGROV1 cells were grown in the same medium as 4T1-C12.
4T1p and 4T1-C12 tumor cells in 96-well plates (20,000 cells/well) were treated with 10-fold serial dilutions of Conjugate 5 (100 nM) in FFRPMI medium. After a 2 hour exposure, the drug-containing media were replaced and the cells were washed and allowed to incubate further for 96 hours. The cell viability was assessed by adding XTT (2,3-bis(2-methoxy-4-nitro-5-sulfo-phenyl)-2H-tetrazolium-5-carboxanilide) to the culture medium for 2 hours following the manufacturer's instructions. All results were expressed as % absorbance (minus background) relative to the untreated control cells.

Calf thymus DNA (CT-DNA) = experiment: DNA crosslinking assay (ethidium bromide fluorescence); format: biochemical; settings: 1.1 to 75 μM, 37° C. 2 hours
Method: Calf thymus DNA (CT-DNA) was combined with increasing concentrations of Conjugate 5 (1.1 to 75 μM) or Conjugate 5+/−DTT. These solutions were incubated at 37° C. for 2 hours. The solutions were then mixed with ethidium bromide and incubated for 2 hours at room temperature. Fluorescence (Ex: 535 nm, Em: 605 nm) from these samples was measured on the Fluoroskan II fluorimeter. Next, the samples were heated to 104° C. for 5 minutes, cooled on ice for 5 minutes, kept at RT for 15 minutes and fluorescence measured. % crosslinking of each sample was calculated using the fluorescence values from the positive and negative controls.

ST070 ovarian PDX tumors = experiment: In vivo activity against ovarian tumors; set-up: species or system mice
Method: as §1
as §2, with “Ovarian” for “TNBC”, “ST070 fragments” for “ST502 (2-4 mm in diameter) or primary human TNBC model ST738”

T1 sequence (P15328 25-234): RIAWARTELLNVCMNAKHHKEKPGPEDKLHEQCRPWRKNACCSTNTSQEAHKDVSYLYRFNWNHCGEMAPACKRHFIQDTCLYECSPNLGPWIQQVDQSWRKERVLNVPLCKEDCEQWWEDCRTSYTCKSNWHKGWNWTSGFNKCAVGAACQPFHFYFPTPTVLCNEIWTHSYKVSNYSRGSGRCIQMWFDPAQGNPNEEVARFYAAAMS

Structure (SMILES): C=C1C[C@H]2C=Nc3cc(OCCCCCOc4cc(N)c(C(=O)N5CC(=C)C[C@H]5C5OCCN5C(=O)OCC(C)(C)SSCCC(=O)NCCNC(=O)CCOCCOCCOCCOCCNC(=O)CCN5C(=O)CC(SC[C@H](NC(=O)[C@H](CC(=O)O)NC(=O)[C@H](CC(=O)O)NC(=O)[C@H](CCCNC(=N)N)NC(=O)[C@H](CC(=O)O)NC(=O)CC[C@H](NC(=O)c6ccc(NCc7cnc8nc(N)[nH]c(=O)c8n7)cc6)C(=O)O)C(=O)O)C5=O)cc4OC)c(OC)cc3C(=O)N2C1 (stereo partly shown) [Conjugate 5]
- relative binding affinity toward the folate receptor, fold lower than that of folic acid (folate receptor): ~1.9 fold
- body weight [1]: significant weight loss
- complete responders [1]: no complete responders
- tumor sensitivity / tumor growth [1]: partial sensitivity
- TNBC PDX tumor size compared to untreated control (TNBC PDX tumor): decreased TNBC PDX tumor size
- median survival time (ID8-C115 ascites tumors; 7-day-old tumors, Conjugate 5 0.1 mol/kg BIW×6 doses, EC1456 2 mol/kg BIW×6 doses, untreated ~46 days): ~77 days post tumor implant
- toxicity observed (ID8-C115 ascites tumors; 21-day-old tumors, Conjugate 5 0.1 mol/kg D0-2×3, 9 doses, EC1456 2 μmol/kg D0-2×, 9 doses): mild ataxia
- median survival time (ID8-C115 ascites tumors; 21-day-old tumors, Conjugate 5 0.1 mol/kg D0-2×3, 9 doses, EC1456 2 μmol/kg D0-2×, 9 doses (two remaining animals), untreated ~46 days): ~76 days
- median survival time (ID8-C115 ascites tumors; 35-day-old tumors, Conjugate 5 0.3 μmol/kg SIW×2, 2 doses, EC1456 2 mol/kg D0-2×2, 4 doses, untreated ~42 days): ~64 days post tumor implant
- median survival time (ID8-C115 ascites tumors; 43-day-old tumors, Conjugate 5 0.3 μmol/kg SIW×2, 2 doses, EC1456 2 mol/kg D0-2×1, 3 doses, untreated ~46 days): ~57 days post tumor implant
- activity in the presence of excess folic acid (4T1-C12 tumor cells; excess folic acid): partially reversible
- IC50 (4T1-C12 tumor cells; read-out: relative IC50, inhibition of cell proliferation): ~8.7 nM
- DNA crosslinking, reduced form (Calf thymus DNA (CT-DNA); treated with DTT): can then crosslink with DNA
- DNA crosslinking, intact conjugate (Calf thymus DNA (CT-DNA); without DTT): not able to crosslink DNA
- cure (number of mice) (ST070 ovarian PDX tumors; 0.5 μmol/kg SIW for two weeks, n=7): 7
- ovarian PDX tumor size compared to untreated control (ST070 ovarian PDX tumors; Conjugate 5 0.5 μmol/kg SIW, EC1456 4.0 μmol/kg SIW, paclitaxel 15 mg/kg SIW, two weeks): decreased ovarian PDX tumor size
